Structures are written as SMILES.

The test addresses recombinant yeast Hsp90. The test is described as follows: ATPase inhibition assay. Format: biochemical, Saccharomyces cerevisiae. Particulars: read-out: ATPase; incubated with ATP.

With `C[C@@H]1C[C@H]2O[C@@H]2/C=C\C=C\C(=O)Cc2c(Cl)c(O)cc(O)c2C(=O)O1` [RDC], the IC50 was determined as 400 nM.

The values above are taken from paper PMC2697668 (Organic letters, 2009).
